Laboratory results published in patent US7645802B2 (Biovail Laboratories International SRL., priority 2005, dated 2010).

Assays:
[1] = tested on: Rj: Wistar (Han) rats; assay: EEG trace monitoring and behavioural observations in conscious rats; conditions: rat, in vivo, ip
Protocol: The effects of the two bupropion salt forms hydrochloride and hydrobromide on central nervous system activity after intraperitoneal administration were evaluated by means of EEG trace monitoring in conscious rats. The method which detects electroencephalographic activity in conscious rats follows that described by Dürmüller et al., (2000) Vigilance-Controlled Quantified EEG in Safety Pharmacology, Current Protocols in Pharmacology Unit 10.6. The study was conducted at Porsolt & Partners Pharmacology, Research Laboratory, Z. A. des Suhards—B.P. 9, 53940 Le Genest-Saint-Isle, France.
Substances: The formulation excipient used was physiological saline (Laboratoire Aguettant). […] All substances were stored in a dry, dark, controlled access area and maintained at a controlled ambient temperature of about 20±3° C. The vehicle solutions were stored at about +4° C. The substances were administered in a volume of 5 ml/kg body weight. The doses of bupropion hydrochloride are expressed in mg/kg of salt. […] The substances were dissolved in physiological saline and prepared freshly at each day of experimentation.
Test systems: The rats used were male Rj: Wistar (Han) rats, weighing from about 280 g to 324 g at the time of implantation. They were supplied by Elevage Janvier, 53940 Le Genest-Saint-Isle, France. […] Upon delivery to the laboratory, the animals were housed in groups of 5 animals maximum, in macrolon cages (44×28×19 cm) containing wood litter (Litalabo—SPPS, 95100 Argenteuil, France). The animals had free access to food (Code 113—SAFE, 89290 Augy, France) and tap water. The animal house was maintained under artificial lighting (12 hrs) from 7:00 to 19:00 in a controlled ambient temperature of about 21±3° C. and relative humidity maintained at from about 30% to about 80%. […] Except during the test sessions, the animals had free access to food (Code 113) and tap water. The animals were identified by marking the connector fixed on the animal's head with an indelible pen. Rats were sacrificed at the end of the experiments by lethal injection of pentobarbital (>100 mg/kg i.p.). Animals were not submitted to necropsy. There is no reason to expect that contaminants were present in the feed, water or bedding at levels capable of interfering with the results of the tests. No checks were performed for this particular study.
Electrode implantation procedure: Implantation surgery was carried out under aseptic conditions. Rats, anesthetized with sodium pentobarbital (60 mg/kg i.p., plus supplementary doses of from about 5 mg/kg to about 10 mg/kg to maintain anesthesia until surgery completion) were implanted with 2 surface EEG electrodes, comprised of miniature titanium screws, placed bilaterally over the frontal-parietal cortex and 2 depth electrodes, comprised of twisted platinium-iridium wires, placed stereotaxically into the hippocampus CA3 area (Paxinos and Watson coordinates interaural: AP+5.0 mm, L±2.5 mm, V+7.0 mm). An additional screw, placed over the right occipital cortex, served as ground electrode. The electrodes were connected to small plugs and the whole assembly was secured on the skull with dental acrylate.
Apparatus: For the EEG recording, the animals were placed in rectangular Plexiglas cubicles (30×10×25 cm) mounted on treadmills. Five recording units were run in parallel. A turning commutator was attached above the centre of each cubicle, about 30 cm above walking level. On one side, it was connected via an electrically shielded multicore cable to the animal and on the other side to the signal conditioning system (Coulbourn Model V75-01). The system filters were set for all channels to high pass 1 Hz and low pass 150 Hz, respectively. The amplification levels were kept at from 1000× to 10000×. The EEG signals were acquired and processed on a PC (DELL GX620-2800) installed with a 16 channel 200 kHz/12-bit AD acquisition card (NI PCI-6023E).

[2] = tested on: rat; conditions: 100 mg/kg i.p., long seizure activity
[3] = forced degradation stability study of bupropion salts in vials, 40 degrees C./75% RH, HPLC assay and impurities

CC(NC(C)(C)C)C(=O)c1cccc(Cl)c1.Cl (racemic) [bupropion hydrochloride, (±)-1-(3-chlorophenyl)-2-[(1,1-dimethylethyl)amino]-1-propanone hydrochloride]
BEHAVIOR Facial clonus ([1]; 10 mg/kg): − | BEHAVIOR Forelimb clonus ([1]; 10 mg/kg): − | BEHAVIOR Head twitches ([1]; 10 mg/kg): − | BEHAVIOR Hyperactivity Sterotypies ([1]; 10 mg/kg): − | BEHAVIOR Rearing ([1]; 10 mg/kg): − | BEHAVIOR Wholebody clonus ([1]; 10 mg/kg): − | EEG ANALYSIS Burst cx ([1]; 10 mg/kg): − | EEG ANALYSIS Burst hipp ([1]; 10 mg/kg): − | EEG ANALYSIS Complex spike cx ([1]; 10 mg/kg): − | EEG ANALYSIS Complex spike hipp ([1]; 10 mg/kg): − | EEG ANALYSIS High amplitude fast frequency cx ([1]; 10 mg/kg): − | EEG ANALYSIS High amplitude fast frequency hipp ([1]; 10 mg/kg): − | EEG ANALYSIS High frequency burst activity hipp ([1]; 10 mg/kg): − | EEG ANALYSIS Long seizure activity cx ([1]; 10 mg/kg): − | EEG ANALYSIS Long seizure activity hipp ([1]; 10 mg/kg): − | EEG ANALYSIS Post ictual activity cx ([1]; 10 mg/kg): − | EEG ANALYSIS Post ictual activity hipp ([1]; 10 mg/kg): − | EEG ANALYSIS Repetitive isolated spike cx ([1]; 10 mg/kg): − | EEG ANALYSIS Repetitive isolated spike hipp ([1]; 10 mg/kg): − | EEG ANALYSIS Sharp waves cx ([1]; 10 mg/kg): − | EEG ANALYSIS Sharp waves hipp ([1]; 10 mg/kg): − | EEG ANALYSIS Short seizure activity cx ([1]; 10 mg/kg): − | EEG ANALYSIS Short seizure activity hipp ([1]; 10 mg/kg): − | EEG ANALYSIS Spike-and-waves cx ([1]; 10 mg/kg): − | EEG ANALYSIS Spike-and-waves hipp ([1]; 10 mg/kg): − | BEHAVIOR Facial clonus ([1]; 30 mg/kg): − | BEHAVIOR Forelimb clonus ([1]; 30 mg/kg): − | BEHAVIOR Head twitches ([1]; 30 mg/kg): − | BEHAVIOR Hyperactivity Sterotypies ([1]; 30 mg/kg): + | BEHAVIOR Rearing ([1]; 30 mg/kg): − | BEHAVIOR Wholebody clonus ([1]; 30 mg/kg): − | EEG ANALYSIS Sharp waves cx ([1]; 30 mg/kg): − | EEG ANALYSIS Sharp waves hipp ([1]; 30 mg/kg): − | EEG ANALYSIS Spike-and-waves cx ([1]; 30 mg/kg): − | EEG ANALYSIS Spike-and-waves hipp ([1]; 30 mg/kg): − | BEHAVIOR Facial clonus ([1]; 60 mg/kg): − | BEHAVIOR Forelimb clonus ([1]; 60 mg/kg): − | BEHAVIOR Head twitches ([1]; 60 mg/kg): − | BEHAVIOR Hyperactivity Sterotypies ([1]; 60 mg/kg): + | BEHAVIOR Rearing ([1]; 60 mg/kg): − | BEHAVIOR Wholebody clonus ([1]; 60 mg/kg): − | EEG ANALYSIS Sharp waves cx ([1]; 60 mg/kg): − | EEG ANALYSIS Sharp waves hipp ([1]; 60 mg/kg): − | EEG ANALYSIS Spike-and-waves cx ([1]; 60 mg/kg): − | EEG ANALYSIS Spike-and-waves hipp ([1]; 60 mg/kg): − | BEHAVIOR Facial clonus ([1]; 100 mg/kg): + | EEG ANALYSIS Spike-and-waves cx ([1]; 100 mg/kg): − | EEG ANALYSIS Spike-and-waves hipp ([1]; 100 mg/kg): − | NUMBER OF ANIMALS WITH SEIZURE ACTIVITY ([2]; 10 rats per group, HBr dose in HCl molar equivalent): 10 | DURATION OF INITIAL SEIZURE CORTEX mean ± s.e.m. [2]: 33 ± 3 | DURATION OF INITIAL SEIZURE HIPPOCAMPUS mean ± s.e.m. [2]: 25 ± 4 | In IPA/EtOH, 3-CBZ: order of impurity content [3]: maleate > HBr > HCl > Fumarate | In IPA/EtOH, 852U77: order of impurity content [3]: fumarate > HBr ≈HCl ≈maleate ≈tosylate | In IPA/EtOH, Total imp.: order of impurity content [3]: fumarate > maleate > HBr > HCl > tosylate | In water, 3-CBZ: order of impurity content [3]: HCl > HBr≈maleate≈fumarate | In water, 852U77: order of impurity content [3]: fumarate > HBr > maleate > HCl | In water, Total imp.: order of impurity content [3]: fumarate > HBr > HCl > tosylate > maleate | order of stability (assay, % potency) ([3]; salt plus excipients, closed vials, 20 days, 40 degrees C./75% RH): HBr>HCl≈tosylate>fumarate>maleate
